Consider 15 compounds from patent US5656651A, “Androgenic directed compositions” (Biophysica Inc., priority 1995, dated 1997).

Values joined by “and” are separate entries in the source; they are usually repeats but may differ in a detail not shown here. Equal values may be shown once. Read-outs that look alike come from different tables or passages of the source.

Data set [1] has as its system MCF-7/ADR Human Breast (adriamycin resistant). Kind of data set: Inhibition of cell proliferation at 72 hours, MCF-7/ADR. It is filed as cell-based. The note with it: NCI/ADR-RES, MCF-7/ADR (adriamycin resistant). The method, then: (§1) All compounds were screened on a panel of normal and cancer human cell lines, including human prostate cancer cell lines, PC-3, DU-145, and LnCAP.
(§2) Cells (10^4 /well) were plated on 96 well plates with the following controls: no cells and toxic control (1×10^-3 M sodium dodecyl sulfate (SDS). The drug was diluted in ethanol and added directly to the wells. Plates were incubated at 37° C. under 5% carbon dioxide in sterile air, in a humidified incubator for 72 hours. A solution (50 μl of 2,3-bis-(methoxy-4-nitro-5-sulfophenyl)-5-[(phenylamino)carbonyl]-2H-tetrazolium hydroxide (XTT), 1 mg/mL) in phosphate buffered saline (PBS, 100 mM) was added to each well, In the presence of viable cells, this colorless clear solution is enzymatically transformed to give a pink coloration, read at 450 nm using a microplate reader (Molecular Devices Thermomax). The inhibition of cell growth was measured by hemocytometer, counting cell viability. (Table I)

Data set [2] concerns NH DF Normal Dermal Fibroblast. In words: Inhibition of cell proliferation at 72 hours, NH DF. The format is cell-based. The note with it: Homo sapiens, NHDF. The method, then:
as §1, §2

Data set [3] has as its system CHO Chinese Hamster Ovary. Kind of data set: Inhibition of cell proliferation at 72 hours, CHO. The format is cell-based. To be noted: Cricetulus griseus.
Another data set concerns PC-3 human cell line. In words: Relative growth inhibition after 6 days. It is filed as cell-based. To be noted: for activity at 10 µM: Homo sapiens, read-out: No. of cells remaining expressed as a % of control. The method, then:
as §1
as §2, with “Plates were incubated at 37° C. under 5% carbon dioxide in sterile air, in a humidified incubator for 72 hours.” left out

The subject of data set [4] is PC-3 Human Prostate (few androgen receptors). Kind of data set: Inhibition of cell proliferation at 72 hours, PC-3. It is filed as cell-based. To be noted: PC-3, 72 hours. How it is done:
as §1, §2

For data set [5], the system named is panel of normal and cancer human cell lines. In words: Cytotoxicity screen on panel of normal and cancer cell lines. The format is cell-based. The method, then:
as §1, §2

Data set [6] relates to Ln CAP Human Prostate (with androgen receptors). In words: Inhibition of cell proliferation at 72 hours, Ln CAP. The format is cell-based. The note with it: LNCaP. How it is done: as §1, §2
Data set [7] has as its system HLF-1 Normal Lung Diploid. Kind of data set: Inhibition of cell proliferation at 72 hours, HLF-1. To be noted: Homo sapiens, HLF1. It is filed as cell-based. How it is done:
as §1, §2

The subject of data set [8] is DU-145 Human Prostate (receptor poor). Kind of data set: Inhibition of cell proliferation at 72 hours, DU-145. The format is cell-based. The note with it: DU-145, 72 hours. The method, then:
as §1, §2

Data set [9] relates to Molt-4 Human T-cell Leukemia. Kind of data set: Inhibition of cell proliferation at 72 hours, Molt-4. The format is cell-based. To be noted: Molt-4, 72 hours. How it is done: as §1, §2
In the next data set the test system is L-1210 Mouse Leukemia. Kind of data set: Inhibition of cell proliferation at 72 hours, L-1210. The format is cell-based. To be noted: L1210, L-1210, 72 hours.
The next data set has as its system MCF-7 Human Breast. Kind of data set: Inhibition of cell proliferation at 72 hours, MCF-7. The format is cell-based. To be noted: MCF7, MCF-7, 72 hours. How it is done:
as §1, §2

The test system of a further data set is Ovcar 3 Human Ovary. In words: Inhibition of cell proliferation at 72 hours, Ovcar 3. The format is cell-based. To be noted: Ovcar 3, 72 hours. The method, then:
as §1, §2

The target of data set [10] is T1, human androgen receptors (Homo sapiens, UniProt P10275).
T1 construct: expressed in transfected cells; host or cells: CV-1 monkey cells (clone CV1-3.9.2)
T1 sequence (P10275 whole entry): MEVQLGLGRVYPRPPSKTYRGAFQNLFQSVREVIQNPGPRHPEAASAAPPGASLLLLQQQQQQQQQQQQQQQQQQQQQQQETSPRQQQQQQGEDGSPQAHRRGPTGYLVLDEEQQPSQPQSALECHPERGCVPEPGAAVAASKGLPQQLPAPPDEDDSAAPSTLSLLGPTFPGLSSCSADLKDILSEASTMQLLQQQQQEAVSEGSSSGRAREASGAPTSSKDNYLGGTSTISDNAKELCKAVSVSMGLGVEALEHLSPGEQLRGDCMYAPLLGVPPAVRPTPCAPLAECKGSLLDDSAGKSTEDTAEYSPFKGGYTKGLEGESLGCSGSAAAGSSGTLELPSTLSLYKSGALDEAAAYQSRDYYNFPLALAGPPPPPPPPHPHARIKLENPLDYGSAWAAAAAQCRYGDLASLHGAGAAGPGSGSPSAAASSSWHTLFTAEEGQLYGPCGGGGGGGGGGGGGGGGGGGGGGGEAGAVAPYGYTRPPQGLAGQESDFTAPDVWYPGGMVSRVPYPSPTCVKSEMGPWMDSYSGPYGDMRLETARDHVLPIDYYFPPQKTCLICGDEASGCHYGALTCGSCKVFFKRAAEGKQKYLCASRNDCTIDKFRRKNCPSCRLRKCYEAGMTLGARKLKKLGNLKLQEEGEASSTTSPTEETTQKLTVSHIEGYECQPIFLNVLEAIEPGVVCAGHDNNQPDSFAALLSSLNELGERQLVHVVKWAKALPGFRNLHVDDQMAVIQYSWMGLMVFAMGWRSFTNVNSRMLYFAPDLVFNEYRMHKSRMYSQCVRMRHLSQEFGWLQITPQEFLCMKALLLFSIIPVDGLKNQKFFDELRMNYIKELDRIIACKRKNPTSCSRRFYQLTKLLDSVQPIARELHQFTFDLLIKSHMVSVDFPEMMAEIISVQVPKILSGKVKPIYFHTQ
Kind of data set: Transactivation assay, anti-androgenic potency, CV1-3.9.2 cells. It is filed as cell-based. The note with it: stimulation with 0.1 nM testosterone. How it is done:
(§3) The androgenic and anti-androgenic activity of the current and novel compounds was tested in a specific assay described by Fuhrman et al. [J. Steroid Biochem. Molec. […] This assay uses CV-1 cells derived from monkeys transfected with human androgen receptors.

Data set [11] concerns the target T1, human androgen receptors. In words: Androgen activity of anti-androgens in CVI-3.9.2 cells (CAT activity). It is filed as cell-based. The method, then:
as §3

The subject of the next data set is androgen receptors. The note with it: background statement; cited from earlier work.
The next data set concerns progestin receptors. To be noted: background statement; cited from earlier work.
The test system of the next data set is glucocorticoid receptors. The note with it: background statement; cited from earlier work.
Where [12] appears, read: 10^-5 M, cell density 10^4/well.

For `CC(=O)O[C@H]1C(=O)[C@]2(C)[C@@H](OC(=O)NCCN3C(=S)N(c4ccc(C#N)c(C(F)(F)F)c4)C(=O)C3(C)C)C[C@H]3OC[C@@]3(OC(C)=O)[C@H]2[C@H](OC(=O)c2ccccc2)[C@]2(O)C[C@H](OC(=O)[C@H](O)[C@@H](NC(=O)c3ccccc3)c3ccccc3)C(C)=C1C2(C)C` [BP-196, 7-{imidazolidinyl-5",5"-dimethyl-4"-oxo-3"-[4"'-cyano-3'"-trifluoromethylphenyl-imidazolidinyl]-2"-thioxo-1"-ethylcarbamoxy}paclitaxel], the IC50 in data set [1] worked out at 10 µM; in data set [2] it was 0.107 µM; in [3], 8.76 µM; in data set [4], 0.0372 µM; in data set [6], 0.131 µM; in [7], 8.06 µM. Moreover, the IC50 in [8] amounted to 0.867 µM; in data set [9], 0.147 µM; in the data set with L-1210 Mouse Leukemia, 0.97 µM; in the data set with MCF-7 Human Breast it was 0.989 µM; with Ovcar 3 Human Ovary, 0.05 µM. Also, in the data set on PC-3 human cell line (10^-5 M, after 6 days, cell density 10^4/well), the “Observation (relative growth inhibition)” value is “cytotoxic cell death”. In the data set with PC-3 human cell line (setting [12]), the activity at 10 µM was approximately 100%. Besides, the “toxicity vis-a-vis normal cells” value in [5] (normal cells) is reported as “quite high”.
As for `C=CCN1C(=S)N(c2ccc(C#N)c(C(F)(F)F)c2)C(=O)C1(C)C` [BP-82, 4-[4,4-dimethyl-5-oxo-3-(2'-propenyl)-2-thioxo-1-imidazolidinyl]-2-trifluoromethyl-benzonitrile], the IC50 on human androgen receptors [10] was approximately 0.0065 µM; in [1], 15.1 µM; in data set [2] it was 91.7 µM; in data set [3], 34.5 µM; in data set [4] it was 31.5 µM; in data set [6], 66 µM. Besides, the half-inhibitory concentration (IC50) was 39 µM in [7]; 13.9 µM in data set [8]; 48.8 µM in [9]; 25 µM in the data set on L-1210 Mouse Leukemia; 50 µM in the data set on MCF-7 Human Breast; 96.5 µM in the data set with Ovcar 3 Human Ovary. Further, in the data set on PC-3 human cell line (setting [12]), the activity at 10 µM is approximately 70%. Further, the “cytostatic effect in PC-3 human cell line” value in the data set on PC-3 human cell line (PC-3, Table II) is listed as “cytostatic effect”. Also, at human androgen receptors [11] (1 μM), the “CAT Activity” value was 1300 cpm.
As for `CC1(C)OCC(CN2C(=S)N(c3ccc(C#N)c(C(F)(F)F)c3)C(=O)C2(C)C)O1` (centres unmarked) [BP134, 4-[4,4-dimethyl-3-[2',2'-dimethyl-1',3'-dioxolane-4'-methyl)-5-oxo-2-thioxo-1-imidazolidinyl]-2-trifluoromethyl-benzonitrile], the IC50 against human androgen receptors [10] was 0.021 µM. The “CAT Activity” value on human androgen receptors [11] (1 μM) is listed as 1600 cpm.
Turning to `CC(C)(C)OC(=O)NCCN1C(=S)N(c2ccc(C#N)c(C(F)(F)F)c2)C(=N)C1(C)C` [BP136, 4-[3-(2'-(N-t-butoxycarbonyl)-aminoethyl)-4,4-dimethyl-5-imino-2-thioxo-1-imidazolidinyl]-2-trifluoromethyl-benzonitrile], half-maximal inhibition on human androgen receptors [10] (IC50) was put at 0.2 µM. For the same compound, the “CAT Activity” value at human androgen receptors [11] (1 μM) is 1800 cpm.
In the case of `C[C@]1(O)CC[C@H]2[C@@H]3CCC4=CC(=O)CCC4=C3C=C[C@@]21C` [R1881, reference compound], the “CAT Activity” value on human androgen receptors [11] is 5400 cpm and 5600 cpm and 6700 cpm.
`CC1(C)C(=O)N(c2ccc(C#N)c(C(F)(F)F)c2)C(=S)N1CCN` [BP138, 4-[3-(2'-aminoethyl) 4,4-dimethyl-5-oxo-2-thioxo-1-imidazolidinyl]-2-trifluoromethyl-benzonitrile] displayed an IC50 against human androgen receptors [10] of 0.139 µM. Also, the “CAT Activity” value at human androgen receptors [11] (1 μM) was 1600 cpm.
In the same order, the values of `CC(=O)NCCN1C(=S)N(c2ccc(C#N)c(C(F)(F)F)c2)C(=O)C1(C)C` [BP139, 4-[3-(2'-N-acetylaminoethyl)-4,4-dimethyl-5-oxo-2-thioxo-1-imidazolidinyl]-2-trifluoromethyl-benzonitrile] are 0.239 µM and 1500 cpm.
For `CC1(C)OCC(CN2C(=S)N(c3ccc(C#N)c(C(F)(F)F)c3)C(=N)C2(C)C)O1` (centres unmarked) [BP163, 4-[4,4-dimethyl-3-(2',2'-dimethyl-1',3'-dioxolane-4'-methyl)-5-imino-2-thioxo-1-imidazolidinyl]-2-trifluoromethyl-benzonitrile] the same measures were 0.217 µM and 2100 cpm.
At human androgen receptors [10], `CC1(C)C(=O)N(c2ccc(C#N)c(C(F)(F)F)c2)C(=S)N1CCCCO` [RU59063, 4-[4,4-dimethyl-3-(4-hydroxybutyl)-5-oxo-2-thioxo-1-imidazolidinyl]-2-trifluoromethyl-benzonitrile, reference compound] yielded an IC50 of 0.023 µM. In addition, at human androgen receptors [11] (1 μM), the “CAT Activity” value is on record as 2600 cpm.
In turn, `CC(C)(C)OC(=O)NCCN1C(=S)N(c2ccc(C#N)c(C(F)(F)F)c2)C(=O)C1(C)C` [BP137, 4-[3-(2'-N-(t-butoxycarbonyl)-aminoethyl)-4,4-dimethyl-5-oxo-2-thioxo-1-imidazolidinyl]-2-trifluoromethyl-benzonitrile] had an IC50 against human androgen receptors [10] of 0.02 µM. Also, at human androgen receptors [11] (1 μM), the “CAT Activity” value is recorded as 2000 cpm.
On to `C#CCN1C(=S)N(c2ccc(C#N)c(C(F)(F)F)c2)C(=O)C1(C)C` [BP-199, 4-[4,4-dimethyl-3-(2'-propynyl)-5-oxo-2-thioxo-1-imidazolidinyl]-2-trifluoromethyl-benzonitrile], for which the IC50 at human androgen receptors [10] is 0.015 µM; in [1], 10 µM; in data set [2], more than 100 µM; in [3] it was 12.8 µM; in [4] it was 0.132 µM; in data set [6] it was 0.82 µM. In addition, the IC50 was more than 100 µM in data set [7]; 85.1 µM in [8]; more than 100 µM in data set [9]; 11 µM in the data set with L-1210 Mouse Leukemia; 100 µM in the data set on MCF-7 Human Breast; more than 100 µM in the data set on Ovcar 3 Human Ovary. Moreover, the activity at 10 µM in the data set on PC-3 human cell line (setting [12]) was approximately 50%. Moreover, the “cytotoxicity in human prostate cancer lines containing at least some androgen receptors” value in data set [5] (human prostate cancer lines) is recorded as “most cytotoxic”. The “cytotoxicity in a variety of other human transformed and normal cells” value in [5] (other human transformed and normal cells) is “low cytotoxicity”.
Regarding `CC(O)(CS(=O)(=O)c1ccc(F)cc1)C(=O)Nc1ccc(C#N)c(C(F)(F)F)c1` (centres unmarked) [Casodex], the “binding to androgen receptors (sufficiency for complete blockage)” value in the data set with androgen receptors is “do not bind sufficiently to androgen receptors to achieve their complete blockage”.
Regarding `CC1(C)C(=O)N(c2ccc(C#N)c(C(F)(F)F)c2)C(=S)N1CC(O)CO` (centres unmarked) [BP135, 4-[3-(2',3'-dihydroxypropyl)-4,4-dimethyl-5-oxo-2-thioxo-1-imidazolidinyl]-2-trifluoromethyl-benzonitrile], on human androgen receptors [10], the IC50 came to 0.158 µM. Further, on human androgen receptors [11] (1 μM), the “CAT Activity” value is given as 1900 cpm.
On to `CC(=O)O[C@]1(C(C)=O)CC[C@H]2[C@@H]3C=C(Cl)C4=CC(=O)[C@@H]5C[C@@H]5[C@]4(C)[C@H]3CC[C@@]21C` [Cyproterone Acetate], for which, in the data set on progestin receptors, the “binding to progestin receptors” value was “binds to the glucocorticoid and progestin receptors”. In addition, the “binding to glucocorticoid receptors” value in the data set on glucocorticoid receptors is “binds to the glucocorticoid and progestin receptors”.
Turning to `CC1(C)C(=O)N(c2ccc(C#N)c(C(F)(F)F)c2)C(=S)N1CCc1c[nH]cn1` [BP-213], the activity at 10 µM with PC-3 human cell line (setting [12]) is approximately 40%.

One may read the IC50 as the midpoint of a concentration-inhibition curve.
